Laboratory results as given in publication PMC6160049 (PLoS ONE, 2018).
One block for each molecule: values may come before it.

Key:
[1] = Peptide with mannose lipid (ML-C14) plasma stability analysis; conditions: for dynantin remaining in rat plasma / dynantin degradation in rat plasma: 37 °C, RP-HPLC, UV 210 nm; for dynantin remaining in rat plasma: relative to T-zero; for dynantin degradation in rat plasma: 48 h
Excerpt: (§1) Female Sprague Dawley rats were purchased from Charles River (QC, Canada). Rats were housed at the Laurentian University Animal Care Facility and supplied with food and water ad libitum. All experimental protocols were approved by the Health Sciences North Research Institute biosafety committee and the Laurentian University animal care committee. Blood was collected from rats under a surgical plane of anesthesia using isoflurane via cardiac puncture. Rats were then euthanized by excess isoflurane in addition to the severing of the descending aorta and cutting of the diaphragm. Blood was immediately mixed with an ethylenediaminetetraacetic acid solution (Fisher Scientific, Fairlawn NJ,0.1 M, 5 mM final concentration) and stored on ice until being centrifuged at 2,100 x G and 4 °C for 10 minutes. The top plasma layer was removed, aliquoted and stored at -80 °C.
(§2) Dynantin samples were analyzed at a constant solvent flow rate of 0.7 mL/min at 35 °C using a binary gradient (Table 1). Solvent A consisted of a 25% solution of acetonitrile (HPLC grade Fisher Scientific) in ddH2O (0.2 μm filtered) and solvent B consisted of acetonitrile, with each solvent containing 0.1% trifluoroacetic acid (v/v, protein sequencing grade, Sigma Aldrich, Fairlawn NJ).
(§3) MDP samples were analyzed at a constant solvent flow rate of 1.0 mL/min at 35 °C using a binary gradient (Table 2). Solvent A consisted of ddH2O (0.2 μm filtered) and solvent B consisted of methanol (MeOH) (HPLC grade, Fisher Scientific, Fairlawn NJ), with each solvent containing 0.1% formic acid (v/v, LC/MS grade, Fisher Scientific).
Peptide stability in combination with ML-C14 was investigated using a modified version of the above noted procedure. Aliquots of dynantin or MDP were first combined with varying amounts of ML-C14 (in THF, 20 μL total addition), and then thoroughly mixed before the addition of thawed rat plasma (88 μL). A control sample was also prepared by combining each peptide with THF alone (20 μL) and plasma (88 μL). Samples were incubated at 37 °C in a heating mantle for varying lengths of time before being stored at -80 °C. For HPLC analysis, samples were thawed, thoroughly mixed, diluted in MeOH to destroy liposome particles (1/10 for dynantin, 1/5 for MDP), and solids pelleted by centrifugation at 10,000 rpm and 20 °C for 5 min. The supernatants were carefully removed for analysis (8 μL injections, in duplicate). Stability is represented as the percentage of peptide remaining relative to the amount determined at T-zero.

in vitro = assay: in vitro
Excerpt: as §1, §2, §3

thawed rat plasma = conditions: Female Sprague Dawley rats, 37 °C, up to 24 hours

degradation of MDP in rat plasma [1]: Complete degradation
degradation of MDP in rat plasma (in vitro): completely degraded
metabolised at 12 h (in vitro; female, Sprague Dawley, rat, plasma): ~60%
Molecule: CC(=O)N[C@H]1C(O)O[C@H](CO)[C@@H](O)[C@@H]1O[C@H](C)C(=O)N[C@@H](C)C(=O)N[C@H](CCC(=O)O)C(N)=O (stereo partly shown) [MDP, muramyl dipeptide]

Molecule: CC[C@H](C)[C@H](NC(=O)[C@H](CCCN=C(N)N)NC(=O)[C@H](CCCN=C(N)N)NC(=O)[C@H](CC(C)C)NC(=O)[C@H](Cc1ccccc1)NC(=O)CNC(=O)CNC(=O)[C@@H](C)Cc1c(C)cc(O)cc1C)C(=O)N[C@@H](CCCN=C(N)N)C(=O)N1CCC[C@H]1C(=O)N[C@@H](CCCCN)C(N)=O [dynantin]
dynantin remaining in rat plasma ([1]; with ML-C14, peptide:glycolipid 1:4, EDTA rat plasma 88 μL, 12 h, diluted 1/10 in MeOH, mean ± SEM of three experiments): 21 ± 4%
dynantin remaining in rat plasma ([1]; with ML-C14, peptide:glycolipid 1:4, rat plasma, 24 h): no detectable peptide
dynantin remaining in rat plasma ([1]; with ML-C14, peptide:glycolipid 1:8, rat plasma, 12 h, mean ± SEM of three experiments): 62 ± 4%
dynantin remaining in rat plasma ([1]; with ML-C14, peptide:glycolipid 1:8, rat plasma, 24 h, mean ± SEM of three experiments): 20 ± 3%
dynantin degradation in rat plasma ([1]; with ML-C14, peptide:glycolipid 1:8, rat plasma): completely degraded
dynantin remaining in rat plasma ([1]; with ML-C14, peptide:glycolipid 1:10, rat plasma, 12 h, mean ± SEM of three experiments): 66 ± 6%
dynantin remaining in rat plasma ([1]; with ML-C14, peptide:glycolipid 1:10, rat plasma, 24 h, mean ± SEM of three experiments): 19 ± 4%
dynantin degradation in rat plasma ([1]; with ML-C14, peptide:glycolipid 1:10, rat plasma): completely degraded
degradation of dynantin in rat plasma (in vitro; peptide alone, EDTA rat plasma, 37 °C, 12 h, RP-HPLC, UV 210 nm, relative to T-zero, three experiments): complete dynantin degradation

cleaved bond (thawed rat plasma): L-R and R-R, major and R-I
Molecule: (2S)-Mdp-G-G-F-L-R-R-I-R-P-K-NH2
